Assay results published in the NIST ThermoML archive (doi:10.1021/je300102d).
Numbers after ± are expanded uncertainties.

Test: xn = mol fraction of the nth substance listed
Settings: 101 kPa, Liquid; for viscosity: Concentric cylinders viscometry; for mass density: Vibrating tube method

O [water] + C1CNCCN1
x2 = 0
Settings | mass density [kg/m3] | viscosity [mPa·s]
283.15 K | 999.7 ± 0.2 | 1.307 ± 0.053
293.15 K | – | 1.002 ± 0.041
303.15 K | – | 0.7977 ± 0.032
313.15 K | – | 0.6532 ± 0.027
323.15 K | 988.04 ± 0.2 | 0.547 ± 0.023

C1CNCCN1 [piperazine] + O
Settings | mass density, x1 = 0.00181 [kg/m3] | mass density, x1 = 0.00367 [kg/m3] | mass density, x1 = 0.00741 [kg/m3] | mass density, x1 = 0.01119 [kg/m3] | mass density, x1 = 0.01938 [kg/m3] | viscosity, x1 = 0.000906 [mPa·s] | viscosity, x1 = 0.00182 [mPa·s] | viscosity, x1 = 0.00366 [mPa·s] | viscosity, x1 = 0.00553 [mPa·s] | viscosity, x1 = 0.00742 [mPa·s]
283.15 K | 1000.15 ± 0.2 | 1000.51 ± 0.2 | 1001.34 ± 0.2 | 1002.24 ± 0.2 | 1004.7 ± 0.2 | 1.33 ± 0.054 | 1.362 ± 0.055 | 1.393 ± 0.056 | 1.462 ± 0.059 | 1.533 ± 0.062
293.15 K | 998.63 ± 0.2 | 998.98 ± 0.2 | 999.75 ± 0.2 | 1000.58 ± 0.2 | 1002.52 ± 0.2 | 1.012 ± 0.041 | 1.043 ± 0.042 | 1.092 ± 0.044 | 1.119 ± 0.045 | 1.174 ± 0.048
303.15 K | 996.1 ± 0.2 | 996.42 ± 0.2 | 997.15 ± 0.2 | 997.91 ± 0.2 | 999.69 ± 0.2 | 0.8241 ± 0.034 | 0.8339 ± 0.034 | 0.8791 ± 0.036 | 0.8894 ± 0.036 | 0.9414 ± 0.038
313.15 K | 992.66 ± 0.2 | 992.99 ± 0.2 | 993.68 ± 0.2 | 994.37 ± 0.2 | 996.04 ± 0.2 | 0.6757 ± 0.028 | 0.6868 ± 0.028 | 0.7176 ± 0.029 | 0.7531 ± 0.031 | 0.78 ± 0.032
323.15 K | 988.51 ± 0.2 | 988.81 ± 0.2 | 989.47 ± 0.2 | 990.14 ± 0.2 | 991.64 ± 0.2 | 0.5816 ± 0.024 | 0.5923 ± 0.024 | 0.621 ± 0.025 | 0.6448 ± 0.026 | 0.6604 ± 0.027

O [water] + N
x2 = 0
Settings | mass density [kg/m3] | viscosity [mPa·s]
283.15 K | 999.7 ± 0.2 | 1.307 ± 0.053
293.15 K | – | 1.002 ± 0.041
303.15 K | – | 0.7977 ± 0.032
313.15 K | – | 0.6532 ± 0.027
323.15 K | 988.04 ± 0.2 | 0.547 ± 0.023

N [ammonia] + O
Settings | mass density, x1 = 0.0268 [kg/m3] | mass density, x1 = 0.0505 [kg/m3] | mass density, x1 = 0.1124 [kg/m3] | mass density, x1 = 0.148 [kg/m3] | mass density, x1 = 0.3043 [kg/m3] | viscosity, x1 = 0.0111 [mPa·s] | viscosity, x1 = 0.0262 [mPa·s] | viscosity, x1 = 0.0279 [mPa·s] | viscosity, x1 = 0.1147 [mPa·s] | viscosity, x1 = 0.176 [mPa·s]
283.15 K | 988.73 ± 0.2 | 979.82 ± 0.2 | 957.85 ± 0.2 | 944.97 ± 0.21 | 895.9 ± 0.22 | 1.313 ± 0.053 | 1.428 ± 0.058 | 1.352 ± 0.055 | 1.559 ± 0.063 | 1.713 ± 0.069
293.15 K | 986.79 ± 0.2 | 977.5 ± 0.2 | 954.52 ± 0.2 | 941.01 ± 0.21 | 889.82 ± 0.22 | 1.025 ± 0.042 | 1.074 ± 0.043 | 1.046 ± 0.042 | 1.157 ± 0.047 | 1.289 ± 0.052
303.15 K | 983.98 ± 0.2 | 974.43 ± 0.2 | 950.65 ± 0.2 | 936.67 ± 0.21 | – | 0.8106 ± 0.033 | 0.845 ± 0.034 | 0.8278 ± 0.034 | 0.9025 ± 0.037 | 0.9955 ± 0.04
313.15 K | 980.32 ± 0.2 | 970.59 ± 0.2 | 946.14 ± 0.2 | 931.7 ± 0.21 | – | 0.672 ± 0.027 | 0.7124 ± 0.029 | 0.6922 ± 0.028 | 0.7653 ± 0.031 | 0.8467 ± 0.034
323.15 K | 975.98 ± 0.2 | 966.09 ± 0.2 | 940.98 ± 0.2 | 926.12 ± 0.21 | – | 0.5645 ± 0.023 | 0.5945 ± 0.024 | 0.5795 ± 0.024 | 0.6297 ± 0.026 | 0.6829 ± 0.028
